Test results reported in ChEMBL document CHEMBL1201862, “PubChem BioAssay data set” (2004).
Calls of active or inactive are those of the source.

Experiments:
[1] = biological target: Envelope glycoprotein gp160 (Human immunodeficiency virus 1, UniProt Q6QLK5); assay: inhibitors of HIV fusion peptide binding, primary screen, biochemical, uHTS, fluorescence dequenching (AID 1986)
[2] = biological target: T1, Apoptotic protease-activating factor 1 (Homo sapiens, UniProt O14727); assay: activation of Apaf-1 mediated apoptosis – fluorescent, uHTS hits, dose response (AID 588554); assay type: functional
T1 sequence (O14727 whole entry): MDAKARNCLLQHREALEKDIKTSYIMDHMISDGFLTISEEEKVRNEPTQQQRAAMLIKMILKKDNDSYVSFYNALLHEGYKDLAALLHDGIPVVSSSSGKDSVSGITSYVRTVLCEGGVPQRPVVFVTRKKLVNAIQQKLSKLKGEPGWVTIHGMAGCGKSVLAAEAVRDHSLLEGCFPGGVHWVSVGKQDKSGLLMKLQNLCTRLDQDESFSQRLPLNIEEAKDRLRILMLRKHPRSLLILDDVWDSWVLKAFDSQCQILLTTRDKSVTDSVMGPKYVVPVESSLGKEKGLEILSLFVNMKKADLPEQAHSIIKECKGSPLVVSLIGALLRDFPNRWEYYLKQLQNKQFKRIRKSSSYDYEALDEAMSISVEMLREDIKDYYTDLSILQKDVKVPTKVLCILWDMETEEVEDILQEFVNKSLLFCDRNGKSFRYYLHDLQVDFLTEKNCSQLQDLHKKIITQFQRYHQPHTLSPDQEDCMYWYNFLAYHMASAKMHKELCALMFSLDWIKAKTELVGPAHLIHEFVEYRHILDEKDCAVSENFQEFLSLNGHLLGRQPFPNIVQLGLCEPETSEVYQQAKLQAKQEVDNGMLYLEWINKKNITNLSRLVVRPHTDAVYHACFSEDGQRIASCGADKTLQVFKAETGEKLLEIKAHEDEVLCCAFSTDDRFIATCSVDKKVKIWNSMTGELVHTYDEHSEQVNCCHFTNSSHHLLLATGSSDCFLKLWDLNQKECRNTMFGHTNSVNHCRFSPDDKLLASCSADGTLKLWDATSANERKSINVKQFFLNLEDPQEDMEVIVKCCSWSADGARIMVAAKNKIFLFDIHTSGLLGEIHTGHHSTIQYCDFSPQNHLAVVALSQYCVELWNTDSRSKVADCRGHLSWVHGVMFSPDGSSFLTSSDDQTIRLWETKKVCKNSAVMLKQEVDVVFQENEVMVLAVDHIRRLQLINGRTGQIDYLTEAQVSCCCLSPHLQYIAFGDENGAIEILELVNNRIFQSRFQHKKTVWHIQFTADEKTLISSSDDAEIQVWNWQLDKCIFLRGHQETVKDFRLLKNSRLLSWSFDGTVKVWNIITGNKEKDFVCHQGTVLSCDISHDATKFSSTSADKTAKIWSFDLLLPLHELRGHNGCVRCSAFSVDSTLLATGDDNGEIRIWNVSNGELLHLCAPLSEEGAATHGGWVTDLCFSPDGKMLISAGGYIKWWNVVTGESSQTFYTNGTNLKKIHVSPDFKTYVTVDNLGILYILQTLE

BJ [3] = assay: cytotoxicity toward BJ-TERT fibroblasts, dose response, cell-based, RAS-independent, luminescence (AID 1933); assay type: functional; settings: Homo sapiens
[4] = biological target: T2, Heat shock factor protein 1 (Mus musculus, UniProt P38532); assay: inhibition of MG132-induced HSE-luciferase signal, confirmation, cell-based, NIH3T3, luminescence, dose retest (AID 2382); assay type: functional;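 also: NIH3T3 fibroblasts with HSF1-driven luciferase reporter stressed by proteasome inhibitor MG132; luminescence from HSF1-driven luciferase expression after 8 hours of MG132 stress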
T2 sequence (P38532 whole entry): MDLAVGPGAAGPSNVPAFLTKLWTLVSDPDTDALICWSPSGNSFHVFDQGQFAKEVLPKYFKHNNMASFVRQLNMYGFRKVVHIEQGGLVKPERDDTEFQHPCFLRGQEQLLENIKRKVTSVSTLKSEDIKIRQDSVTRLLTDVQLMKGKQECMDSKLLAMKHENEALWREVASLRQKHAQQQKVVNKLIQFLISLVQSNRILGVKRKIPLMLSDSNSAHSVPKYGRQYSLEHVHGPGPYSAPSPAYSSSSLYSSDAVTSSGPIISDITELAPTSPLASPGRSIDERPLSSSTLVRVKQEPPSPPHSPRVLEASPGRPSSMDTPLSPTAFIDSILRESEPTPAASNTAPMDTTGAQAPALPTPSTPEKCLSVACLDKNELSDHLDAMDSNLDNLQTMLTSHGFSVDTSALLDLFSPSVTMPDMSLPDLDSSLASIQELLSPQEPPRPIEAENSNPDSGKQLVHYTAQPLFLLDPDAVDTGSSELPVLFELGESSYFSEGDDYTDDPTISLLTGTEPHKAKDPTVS

BJ [5] = assay: cells; assay type: functional, cell-based; settings: Homo sapiens
BJ [6] = assay: cytotoxicity toward BJ-TERT-LT-ST fibroblasts, dose response, cell-based, RAS-independent, luminescence (AID 1935); assay type: functional; settings: Homo sapiens;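 also: BJ fibroblasts immortalized with TERT plus LT and ST oncogenes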
[7] = cytotoxicity toward DRD oncogenic fibroblasts, dose response, cell-based, non-viral oncogenic, luminescence (AID 1934); assay type: functional; settings: Homo sapiens
[8] = biological target: DNA damage-inducible transcript 3 protein (Mus musculus, UniProt P35639); assay type: functional, Cricetulus griseus
[9] = biological target: T3, Microphthalmia-associated transcription factor (Homo sapiens, UniProt O75030); assay: TRPM1 promoter luciferase signal decrease, dose response, MITF inhibitor project, cell-based, SK-MEL-5, cherry-picked, set 3 (AID 493073); assay type: functional
T3 sequence (O75030 whole entry): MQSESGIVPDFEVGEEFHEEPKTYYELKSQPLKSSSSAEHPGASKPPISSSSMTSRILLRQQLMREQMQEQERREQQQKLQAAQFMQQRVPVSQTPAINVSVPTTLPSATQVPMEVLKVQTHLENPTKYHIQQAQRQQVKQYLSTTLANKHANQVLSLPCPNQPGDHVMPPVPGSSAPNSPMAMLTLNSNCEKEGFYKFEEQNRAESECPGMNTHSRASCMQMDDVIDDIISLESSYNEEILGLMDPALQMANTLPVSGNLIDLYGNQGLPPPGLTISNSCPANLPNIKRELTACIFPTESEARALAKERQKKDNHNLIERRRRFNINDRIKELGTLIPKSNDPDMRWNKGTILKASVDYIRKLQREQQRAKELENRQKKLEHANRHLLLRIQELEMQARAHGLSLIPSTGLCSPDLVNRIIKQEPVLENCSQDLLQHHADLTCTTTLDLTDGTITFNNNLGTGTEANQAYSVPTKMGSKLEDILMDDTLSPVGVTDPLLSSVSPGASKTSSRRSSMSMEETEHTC

X-box-binding protein 1 = biological target: T4, X-box-binding protein 1 (Homo sapiens, UniProt P17861); assay type: functional, Cricetulus griseus;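 also: confirmatory dose-response counter-screen serving a CHOP assay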
T4 sequence (P17861 whole entry): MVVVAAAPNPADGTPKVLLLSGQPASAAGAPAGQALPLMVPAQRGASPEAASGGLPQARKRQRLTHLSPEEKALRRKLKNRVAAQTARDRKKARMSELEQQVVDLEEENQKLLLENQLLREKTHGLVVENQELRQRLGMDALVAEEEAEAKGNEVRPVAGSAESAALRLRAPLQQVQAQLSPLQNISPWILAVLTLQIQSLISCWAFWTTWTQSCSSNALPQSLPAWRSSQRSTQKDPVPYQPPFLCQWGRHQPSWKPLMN

A-375 = assay: MITF: Counter assay: A375 proliferation Measured in Cell-Based System Using Plate Reader - 2084-03_Inhibitor_Dose_DryPowder_Activity. [Related pubchem assays (depositor defined):AID488944]; assay type: functional; settings: Homo sapiens
[10] = Luminescence Cell-Based Dose Retest to Confirm Inhibitors of Cancer Stem Cells. [Related pubchem assays (depositor defined):AID2717, AID2721]; assay type: functional; settings: Homo sapiens
Escherichia coli = assay: microbe, parasite or virus in culture
Trypsin = Trypsin (Sus scrofa, UniProt P00761); assay: porcine trypsin inhibitors, dose response, selectivity assay for Rce1 protease inhibitor project, biochemical, quenched peptide fluorescence, cherry-pick (AID 488789)
CAAX prenyl protease 2 [11] = biological target: CAAX prenyl protease 2 (Saccharomyces cerevisiae S288c, UniProt Q03530); assay type: biochemical
CAAX prenyl protease 2 [12] = biological target: CAAX prenyl protease 2 (Homo sapiens, UniProt Q9Y256); assay: human Rce1 protease inhibitors, dose response, biochemical, yeast membranes, quenched-peptide fluorescence, cherry-pick (AID 588849)
[13] = biological target: UDP-galactopyranose mutase (Mycobacterium tuberculosis, UniProt P9WIQ1); assay: Inhibitors of Mycobacterium tuberculosis UDP-galactopyranose mutase (UGM) enzyme Measured in Biochemical System Using Plate Reader - 2105-02_Inhibitor_Dose_CherryPick_Activity. [Related pubchem assays (depositor defined):AID504439]
[14] = test system: Streptococcus sp. 'group A'; assay: growth inhibition of control SK(-) GAS strain, dose response, counter-screen for streptokinase expression inhibitor project, luminescence, kanamycin, BacTiterGlo, confirmation (AID 1900); assay type: functional, organism-based
Streptococcus [15] = assay: Luminescence Microorganism-Based Dose Response Follow up to Identify Compounds Cytotoxic to Streptococcus. [Related pubchem assays: 1677 (Project Summary), 1915, 1914, 1902 (Retest at Dose), 1900 (Counter Screen), 1662 (Primary HTS)]; assay type: functional, organism-based
Streptokinase A = biological target: T5, Streptokinase A (Streptococcus pyogenes serotype M1, UniProt P10520); assay: S. pyogenes streptokinase expression inhibitors, potency, dose response, plasminogen activation absorbance, OD405 (AID 1914); assay type: functional, Streptococcus pyogenes M1 GAS;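 also: secreted streptokinase activity via plasminogen activation per viability signal from cell pellet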
T5 sequence (P10520 whole entry): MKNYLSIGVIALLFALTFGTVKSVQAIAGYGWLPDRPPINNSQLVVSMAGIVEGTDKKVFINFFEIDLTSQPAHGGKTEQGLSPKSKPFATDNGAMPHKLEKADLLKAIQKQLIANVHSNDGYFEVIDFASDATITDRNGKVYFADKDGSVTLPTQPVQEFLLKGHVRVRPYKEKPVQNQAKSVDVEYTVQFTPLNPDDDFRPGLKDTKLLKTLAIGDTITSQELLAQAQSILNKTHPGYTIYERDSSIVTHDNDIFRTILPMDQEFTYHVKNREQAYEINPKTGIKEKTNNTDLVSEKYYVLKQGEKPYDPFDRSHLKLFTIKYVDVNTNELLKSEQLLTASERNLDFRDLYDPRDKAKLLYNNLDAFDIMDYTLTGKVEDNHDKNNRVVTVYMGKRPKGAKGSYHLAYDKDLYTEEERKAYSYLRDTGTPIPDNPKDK

Streptococcus [16] = assay: Group A Streptococcus viability loss, dose response, counter-screen for streptokinase expression inhibitor project, luminescence, BacTiterGlo (AID 1915); assay type: functional, organism-based;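 also: potency for reduction of bacterial viability or growth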
[17] = cytotoxicity in HMLE control line with eGFP shRNA, dose response, counter-screen for HMLE_sh_ECad selective toxicity project, cell-based, HMLE_sh_eGFP, luminescence (AID 463074); assay type: functional, Homo sapiens;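 also: HMLE human mammary epithelial cells expressing control shRNA against eGFP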
[18] = biological target: Tyrosine-protein phosphatase non-receptor type 12 (Homo sapiens, UniProt Q05209); assay: SAR Selectivity Analysis of small molecule inhibitors of PEST using pCAP in a fluorescence assay. [Related pubchem assays (depositor defined):AID1779, AID1784, AID2135]; assay type: functional
[19] = biological target: T6, Tyrosine-protein phosphatase non-receptor type 22 (Homo sapiens, UniProt Q9Y2R2); assay: SAR LYP1 Fluorescent Assay using OMFP substrate for In Vitro dose response studies - Set 3. [Related pubchem assays (depositor defined):AID1779, AID1784, AID2140, AID2686]; assay type: functional
[20] = biological target: T7, Tyrosine-protein phosphatase non-receptor type 7 (Homo sapiens, UniProt P35236); assay: redox-dependent HePTP inhibition, mechanism study, biochemical, fluorescence (AID 2068); assay type: functional
T7 sequence (P35236 whole entry): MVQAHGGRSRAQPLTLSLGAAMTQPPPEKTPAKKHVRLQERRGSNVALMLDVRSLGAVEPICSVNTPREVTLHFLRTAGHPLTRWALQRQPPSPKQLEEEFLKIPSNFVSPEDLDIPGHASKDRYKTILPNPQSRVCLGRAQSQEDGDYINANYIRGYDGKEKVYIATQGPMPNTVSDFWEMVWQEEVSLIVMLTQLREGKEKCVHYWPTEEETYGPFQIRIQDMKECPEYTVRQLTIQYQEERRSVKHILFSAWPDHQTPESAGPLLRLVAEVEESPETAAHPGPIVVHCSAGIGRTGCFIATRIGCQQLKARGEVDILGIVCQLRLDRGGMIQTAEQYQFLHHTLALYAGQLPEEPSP

[21] = biological target: T7, Tyrosine-protein phosphatase non-receptor type 7; assay: HePTP (PTPN7) phosphatase inhibitor potency, SAR follow-up, biochemical, set 2 (AID 449736); assay type: functional
[22] = biological target: T6, Tyrosine-protein phosphatase non-receptor type 22; assay: LYP (PTPN22) phosphatase inhibitor potency, SAR follow-up, biochemical, pCAP fluorogenic substrate, fluorescence, set 3 (AID 449727); assay type: functional
[23] = biological target: Dual specificity protein phosphatase 6 (Rattus norvegicus, UniProt Q64346); assay type: functional;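 also: confirmatory in vitro dose-response testing of MKP-3 inhibition; recombinant His-tagged MKP-3 made in E. coli BL21 with OMFP substrate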
Sequence of Dual specificity protein phosphatase 6 (Q64346 whole entry): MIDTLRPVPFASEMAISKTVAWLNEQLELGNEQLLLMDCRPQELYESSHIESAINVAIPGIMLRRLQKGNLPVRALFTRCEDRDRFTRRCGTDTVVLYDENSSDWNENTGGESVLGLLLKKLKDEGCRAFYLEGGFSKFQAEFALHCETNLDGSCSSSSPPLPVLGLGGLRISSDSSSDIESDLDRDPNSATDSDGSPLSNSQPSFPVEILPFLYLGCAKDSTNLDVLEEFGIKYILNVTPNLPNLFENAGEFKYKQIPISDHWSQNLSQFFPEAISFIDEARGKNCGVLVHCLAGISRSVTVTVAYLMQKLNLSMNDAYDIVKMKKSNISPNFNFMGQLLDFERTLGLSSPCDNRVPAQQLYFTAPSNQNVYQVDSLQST

T6 sequence (Q9Y2R2 whole entry): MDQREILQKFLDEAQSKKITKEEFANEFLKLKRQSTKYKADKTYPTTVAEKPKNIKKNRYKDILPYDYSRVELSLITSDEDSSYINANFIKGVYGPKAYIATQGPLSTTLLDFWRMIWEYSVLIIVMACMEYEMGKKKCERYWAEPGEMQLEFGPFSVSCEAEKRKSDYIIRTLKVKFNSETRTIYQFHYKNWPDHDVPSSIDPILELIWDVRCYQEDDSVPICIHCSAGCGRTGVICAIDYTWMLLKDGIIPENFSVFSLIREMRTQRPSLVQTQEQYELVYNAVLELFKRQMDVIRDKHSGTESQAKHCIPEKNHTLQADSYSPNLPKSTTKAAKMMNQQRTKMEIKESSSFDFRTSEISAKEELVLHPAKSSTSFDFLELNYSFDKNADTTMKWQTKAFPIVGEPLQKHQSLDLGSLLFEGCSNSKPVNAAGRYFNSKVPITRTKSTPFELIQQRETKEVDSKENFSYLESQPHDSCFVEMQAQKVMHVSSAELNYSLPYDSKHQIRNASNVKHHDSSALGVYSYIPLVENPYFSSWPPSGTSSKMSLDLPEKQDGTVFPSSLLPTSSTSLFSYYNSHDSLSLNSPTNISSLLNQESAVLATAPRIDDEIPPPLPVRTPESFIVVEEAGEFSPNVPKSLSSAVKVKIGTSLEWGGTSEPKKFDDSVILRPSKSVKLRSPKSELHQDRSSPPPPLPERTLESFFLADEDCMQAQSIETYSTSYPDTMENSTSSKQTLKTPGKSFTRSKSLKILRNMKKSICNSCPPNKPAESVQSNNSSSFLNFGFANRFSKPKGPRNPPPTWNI
Sequence of Trypsin (P00761 whole entry): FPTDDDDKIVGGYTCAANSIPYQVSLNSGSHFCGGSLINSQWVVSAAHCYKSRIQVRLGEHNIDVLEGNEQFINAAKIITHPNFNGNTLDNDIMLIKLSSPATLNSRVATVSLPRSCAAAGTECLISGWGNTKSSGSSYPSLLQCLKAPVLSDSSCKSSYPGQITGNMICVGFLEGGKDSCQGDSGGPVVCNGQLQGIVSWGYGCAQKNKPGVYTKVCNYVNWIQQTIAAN
Sequence of CAAX prenyl protease 2 (Homo sapiens, UniProt Q9Y256) (Q9Y256 whole entry): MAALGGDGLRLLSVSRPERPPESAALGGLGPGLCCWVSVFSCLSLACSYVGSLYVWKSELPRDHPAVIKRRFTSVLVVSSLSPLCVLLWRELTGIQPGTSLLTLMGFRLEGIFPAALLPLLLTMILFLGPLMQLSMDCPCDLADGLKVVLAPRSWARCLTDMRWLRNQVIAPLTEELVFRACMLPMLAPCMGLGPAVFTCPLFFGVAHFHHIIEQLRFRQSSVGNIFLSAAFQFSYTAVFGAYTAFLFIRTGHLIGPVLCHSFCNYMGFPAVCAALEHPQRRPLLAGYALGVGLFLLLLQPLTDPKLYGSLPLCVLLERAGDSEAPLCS
Sequence of CAAX prenyl protease 2 (Saccharomyces cerevisiae S288c, UniProt Q03530) (Q03530 whole entry): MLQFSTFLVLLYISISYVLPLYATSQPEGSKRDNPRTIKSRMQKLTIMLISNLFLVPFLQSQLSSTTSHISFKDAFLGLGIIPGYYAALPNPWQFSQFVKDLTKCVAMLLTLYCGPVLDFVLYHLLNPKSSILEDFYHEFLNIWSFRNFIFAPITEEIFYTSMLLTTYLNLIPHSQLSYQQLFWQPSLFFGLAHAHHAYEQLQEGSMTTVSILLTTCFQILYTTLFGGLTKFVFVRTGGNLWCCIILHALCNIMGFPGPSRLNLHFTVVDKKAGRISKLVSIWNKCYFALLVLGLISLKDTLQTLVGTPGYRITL
Sequence of Tyrosine-protein phosphatase non-receptor type 12 (Q05209 whole entry): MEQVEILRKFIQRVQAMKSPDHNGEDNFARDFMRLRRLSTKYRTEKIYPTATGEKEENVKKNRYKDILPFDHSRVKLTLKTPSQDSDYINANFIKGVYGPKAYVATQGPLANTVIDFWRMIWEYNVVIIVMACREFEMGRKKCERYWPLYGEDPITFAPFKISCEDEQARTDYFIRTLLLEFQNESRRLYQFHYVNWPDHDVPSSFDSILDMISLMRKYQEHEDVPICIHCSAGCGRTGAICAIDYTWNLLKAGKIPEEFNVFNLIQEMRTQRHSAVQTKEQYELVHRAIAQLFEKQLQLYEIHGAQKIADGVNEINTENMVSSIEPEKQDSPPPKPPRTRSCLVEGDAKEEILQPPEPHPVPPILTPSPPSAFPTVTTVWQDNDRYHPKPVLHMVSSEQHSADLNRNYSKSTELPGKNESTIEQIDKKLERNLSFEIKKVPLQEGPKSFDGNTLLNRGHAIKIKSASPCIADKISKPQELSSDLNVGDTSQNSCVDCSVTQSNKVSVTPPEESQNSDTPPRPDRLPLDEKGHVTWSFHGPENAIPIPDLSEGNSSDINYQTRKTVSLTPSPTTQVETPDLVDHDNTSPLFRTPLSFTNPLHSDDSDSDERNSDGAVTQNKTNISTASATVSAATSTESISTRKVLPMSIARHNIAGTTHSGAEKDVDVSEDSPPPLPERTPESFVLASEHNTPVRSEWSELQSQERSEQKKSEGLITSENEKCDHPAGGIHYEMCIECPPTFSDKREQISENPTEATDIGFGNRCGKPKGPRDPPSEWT
Sequence of Envelope glycoprotein gp160 (Q6QLK5 whole entry, the tested form may be a part): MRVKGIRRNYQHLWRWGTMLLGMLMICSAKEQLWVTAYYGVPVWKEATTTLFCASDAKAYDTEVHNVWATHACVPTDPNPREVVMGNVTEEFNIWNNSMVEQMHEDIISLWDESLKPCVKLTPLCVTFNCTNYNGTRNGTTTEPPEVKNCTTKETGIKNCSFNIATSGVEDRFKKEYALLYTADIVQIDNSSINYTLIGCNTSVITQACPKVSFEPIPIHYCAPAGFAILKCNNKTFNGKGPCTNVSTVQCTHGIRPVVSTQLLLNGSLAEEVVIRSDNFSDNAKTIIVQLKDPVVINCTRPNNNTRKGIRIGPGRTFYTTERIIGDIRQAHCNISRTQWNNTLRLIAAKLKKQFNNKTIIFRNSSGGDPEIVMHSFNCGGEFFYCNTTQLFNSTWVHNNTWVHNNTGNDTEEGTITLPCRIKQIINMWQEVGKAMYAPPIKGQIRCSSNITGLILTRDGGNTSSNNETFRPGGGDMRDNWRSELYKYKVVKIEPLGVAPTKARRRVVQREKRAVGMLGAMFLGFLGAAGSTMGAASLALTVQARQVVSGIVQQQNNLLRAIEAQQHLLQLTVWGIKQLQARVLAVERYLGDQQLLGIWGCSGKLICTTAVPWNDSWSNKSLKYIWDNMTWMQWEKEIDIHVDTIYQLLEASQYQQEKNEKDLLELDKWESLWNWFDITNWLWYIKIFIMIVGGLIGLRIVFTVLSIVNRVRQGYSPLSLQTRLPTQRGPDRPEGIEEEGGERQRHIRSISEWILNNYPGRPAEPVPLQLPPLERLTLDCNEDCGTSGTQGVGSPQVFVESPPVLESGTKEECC
Sequence of UDP-galactopyranose mutase (P9WIQ1 whole entry): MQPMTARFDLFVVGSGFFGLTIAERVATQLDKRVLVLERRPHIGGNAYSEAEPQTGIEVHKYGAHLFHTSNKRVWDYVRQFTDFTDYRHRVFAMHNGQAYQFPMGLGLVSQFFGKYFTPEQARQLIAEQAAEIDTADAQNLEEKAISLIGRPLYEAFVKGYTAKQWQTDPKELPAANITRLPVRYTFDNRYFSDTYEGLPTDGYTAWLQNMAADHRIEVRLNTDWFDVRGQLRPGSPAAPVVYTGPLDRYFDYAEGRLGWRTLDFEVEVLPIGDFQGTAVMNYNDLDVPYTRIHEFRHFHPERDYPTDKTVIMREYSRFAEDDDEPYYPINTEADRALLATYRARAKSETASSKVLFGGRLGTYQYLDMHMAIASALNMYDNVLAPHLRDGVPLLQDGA
Sequence of DNA damage-inducible transcript 3 protein (P35639 whole entry): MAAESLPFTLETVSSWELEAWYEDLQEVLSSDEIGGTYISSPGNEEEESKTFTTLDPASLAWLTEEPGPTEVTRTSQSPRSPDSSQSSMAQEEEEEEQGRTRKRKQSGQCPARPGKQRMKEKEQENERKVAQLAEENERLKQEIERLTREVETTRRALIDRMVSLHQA

O=C(O)CCN1C(=O)/C(=C\c2ccc(OCc3ccccc3)c(OCc3ccccc3)c2)SC1=S
IC50 [1]: 10.2 µM (active)
EC50 [2]: 18.7 µM (active)

O=C(N/N=C/c1ccccc1Cl)c1[nH]nc2c1CCCC2
EC50 (BJ [3]): 16.4 µM (active)
EC50 [4]: 16 µM (active)
EC50 (BJ [5]): 18.2 µM (active)
EC50 (BJ [6]): > 150 µM (inconclusive)
EC50 [7]: 15.8 µM (active)
Absolute IC50 (CHOP) [8]: 10 µM
AC50 [9]: 7.97 µM (active)
Absolute IC50 (XBP1) (X-box-binding protein 1): 10 µM
AC50 (A-375): 48.5 µM (active)

COc1ccc(-c2cc([C@H]3[C@@H]4C=CCC[C@@]4(C)C(=O)N3Cc3ccccc3)ccc2F)cc1
AC50 [10]: 3.42 µM (active)
AC50 (Escherichia coli): 121 µM (active)

CCN(CC)c1ccc(/C=N/NC(=S)NCc2ccc(OC)cc2)cc1
AC50 (Trypsin): 7.25 µM (active)
AC50 (CAAX prenyl protease 2 [11]): 24.8 µM (active)
AC50 (CAAX prenyl protease 2 [12]): 13.6 µM (active)

CCCCCCNC(=O)C(C#N)c1nc2ccccc2nc1N1CCOCC1 (centres undefined)
AC50 [13]: 70 µM (active)

CC1CC(C)CN(c2ncc3c(n2)CC(c2ccccc2Cl)CC3=O)C1 (centres undefined)
EC50 [14]: 7.25 µM (active)
EC50 (Streptococcus [15]): > 500 µM (not active)
EC50 (Streptokinase A): 10.2 µM (active)
EC50 (Streptococcus [16]): > 150 µM (not active)
AC50 [10]: 4.15 µM (active)
AC50 [17]: 30.2 µM (active)

CC(C)(Oc1ccc2sc3ccccc3c2c1)C(=O)O
IC50 [18]: 9.45 µM (active)
IC50 [19]: 77.5 µM (active)
IC50 [20]: 30.2 µM (active)
IC50 [21]: 0.45 µM (active)
IC50 [22]: 83.8 µM (active)
IC50 [23]: > 99 µM (inactive)
